Reference: patent US9521847B2, “Synergistic weed control from applications of pyridine carboxylic acid herbicides and synthetic auxin herbicides and/or auxin transport inhibitors” (Dow AgroSciences LLC, priority 2014, dated 2016)

What was measured:
[1] = system: velvetleaf (Abutilon theophrasti, ABUTH); experiment: Greenhouse postemergence trial, % visual injury; format: in vivo; settings: Abutilon theophrasti, post-emergence, read-out: % visual injury, Obs
winter wheat (TRZAW) = experiment: Greenhouse postemergence trial, crop phytotoxicity (% visual injury); settings: TRZAW; naptalam 140 g ai/ha
[2] = system: Canadian thistle (CIRAR, Cirsium arvense); experiment: Greenhouse postemergence trial, % visual injury; settings: CIRAR; naptalam 140 g ai/ha;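 also: plants sprayed at second to third true leaf stage, injury scored visually 20-22 d later against solvent-blank sprayed controls, 0 meaning no injury and 100 complete kill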
[3] = system: winter rape (BRSNW, Brassica napus); experiment: Greenhouse postemergence trial, % visual injury; format: in vivo; settings: BRSNW; naptalam 140 g ai/ha
[4] = system: Roundup Ready rape (Brassica napus, BRSNN-RR); experiment: Greenhouse postemergence trial, % visual injury; format: in vivo; settings: naptalam 140 g ai/ha
[5] = system: turnip (Brassica rapa, BRSRR); experiment: Greenhouse postemergence trial, % visual injury; format: in vivo; settings: BRSRR; naptalam 140 g ai/ha
[6] = system: sunflower (Helianthus annus, HELAN); experiment: Greenhouse postemergence trial, % visual injury; format: in vivo; settings: HELAN; naptalam 140 g ai/ha
[7] = system: wild pansy (Viola tricolor, VIOTR); experiment: Greenhouse postemergence trial, % visual injury; settings: VIOTR; naptalam 140 g ai/ha
[8] = system: Chinese kale (Brassica alboglabra, BRSAG); experiment: Greenhouse postemergence trial, % visual injury; format: in vivo; settings: BRSAG; naptalam 140 g ai/ha
[9] = system: rutabaga (Brassica napus var. napobrassica, BRSNA); experiment: Greenhouse postemergence trial, % visual injury; format: in vivo; settings: BRSNA; naptalam 140 g ai/ha
[10] = system: wild buckwheat (Polygonum convolvulus, POLCO); experiment: Greenhouse postemergence trial, % visual injury; format: in vivo; settings: POLCO; naptalam 140 g ai/ha
maize (ZEAMX) = experiment: Greenhouse postemergence trial, crop phytotoxicity (% visual injury); settings: ZEAMX; naptalam 140 g ai/ha
common rice (ORYSA) = experiment: as above; settings: ORYSA; naptalam 140 g ai/ha

O=C(O)c1ccccc1C(=O)Nc1cccc2ccccc12 [naptalam, reference compound]
0%: pest or weed control at 140 g/ha [1] | % visual injury, Obs (winter wheat (TRZAW)) | % visual injury, Obs [2] | % visual injury, Obs [3] | % visual injury, Obs [4] | % visual injury, Obs [5] | % visual injury, Obs [6] | % visual injury, Obs [7] | % visual injury, Obs [8] | % visual injury, Obs [9] | % visual injury, Obs [10] | % visual injury, Obs (maize (ZEAMX)) | % visual injury, Obs (common rice (ORYSA))
